Counter-ions that a name gives are not always drawn. Calls of active or inactive are those of the source. The rule behind the calls is not given here.
Tests used:
DU-145 = assay: Cytotoxicity against human DU145 cells after 2 days; assay type: functional, cell-based; settings: DU-145, 48 h
HL-60 = assay: Cytotoxicity against human HL60 cells after 2 days; assay type: functional, cell-based; settings: HL-60, 48 h
HCT-116 = assay: Cytotoxicity against human HCT116 cells after 2 days; assay type: functional, cell-based; settings: HCT-116, 48 h
MDA-MB-231 = assay: Cytotoxicity against human MDA-MB-231 cells after 2 days; settings: MDA-MB-231, 48 h
[1] = target: DNA topoisomerase 2-alpha (Homo sapiens) (UniProt P11388); assay: Inhibition of human topoisomerase 2alpha-mediated relaxation of supercoiled pBR322 DNA at 20 uM after 30 mins using ethidium bromide staining by transillumination analysis
HeLa = assay: Cytotoxicity against human HeLa cells after 2 days; settings: 48 h
[2] = target: DNA topoisomerase 2-alpha (Homo sapiens) (UniProt P11388); assay: Inhibition of human topoisomerase 2alpha-mediated relaxation of supercoiled pBR322 DNA at 10 uM after 30 mins using ethidium bromide staining by transillumination analysis
[3] = target: T1, DNA topoisomerase 1 (Homo sapiens) (UniProt P11387); assay: Inhibition of human recombinant topoisomerase 1-mediated relaxation of supercoiled pBR322 DNA at 20 uM after 30 mins using ethidium bromide staining by transillumination analysis
T1 sequence (whole entry): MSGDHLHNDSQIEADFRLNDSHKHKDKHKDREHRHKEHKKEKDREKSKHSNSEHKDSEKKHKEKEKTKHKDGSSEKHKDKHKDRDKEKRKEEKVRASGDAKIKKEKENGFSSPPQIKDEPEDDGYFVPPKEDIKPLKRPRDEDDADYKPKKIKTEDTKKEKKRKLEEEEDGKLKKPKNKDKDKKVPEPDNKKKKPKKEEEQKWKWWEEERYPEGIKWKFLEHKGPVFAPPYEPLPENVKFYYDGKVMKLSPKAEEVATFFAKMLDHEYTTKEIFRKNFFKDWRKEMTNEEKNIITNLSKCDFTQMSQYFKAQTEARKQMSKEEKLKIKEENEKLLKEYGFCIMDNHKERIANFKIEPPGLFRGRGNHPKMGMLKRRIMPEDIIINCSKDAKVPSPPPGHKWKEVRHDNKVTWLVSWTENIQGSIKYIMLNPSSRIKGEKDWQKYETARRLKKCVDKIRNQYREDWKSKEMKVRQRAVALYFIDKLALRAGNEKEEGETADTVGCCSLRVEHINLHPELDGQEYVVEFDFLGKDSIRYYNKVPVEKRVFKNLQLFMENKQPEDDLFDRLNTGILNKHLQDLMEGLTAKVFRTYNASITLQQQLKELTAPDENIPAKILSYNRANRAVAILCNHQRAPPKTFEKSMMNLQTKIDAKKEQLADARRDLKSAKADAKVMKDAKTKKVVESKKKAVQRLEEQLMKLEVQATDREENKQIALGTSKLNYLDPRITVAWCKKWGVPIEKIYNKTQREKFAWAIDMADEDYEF

[4] = target: DNA topoisomerase 2-alpha (Homo sapiens) (UniProt P11388); assay: Inhibition of human topoisomerase 2alpha-mediated relaxation of supercoiled pBR322 DNA at 100 uM after 30 mins using ethidium bromide staining by transillumination analysis
[5] = target: DNA topoisomerase 2-alpha (Homo sapiens) (UniProt P11388); assay: Inhibition of human topoisomerase 2alpha-mediated ATP hydrolysis at 400 uM after 30 mins by malachite green ATPase assay
[6] = target: DNA topoisomerase 2-alpha (Homo sapiens) (UniProt P11388); assay: Inhibition of human topoisomerase 2alpha-mediated relaxation of pUC18 DNA at 400 uM after 30 mins by malachite green ATPase assay in presence of 1 to 4 mM of ATP

DNA topoisomerase 2-alpha (Homo sapiens), sequence (P11388 whole entry): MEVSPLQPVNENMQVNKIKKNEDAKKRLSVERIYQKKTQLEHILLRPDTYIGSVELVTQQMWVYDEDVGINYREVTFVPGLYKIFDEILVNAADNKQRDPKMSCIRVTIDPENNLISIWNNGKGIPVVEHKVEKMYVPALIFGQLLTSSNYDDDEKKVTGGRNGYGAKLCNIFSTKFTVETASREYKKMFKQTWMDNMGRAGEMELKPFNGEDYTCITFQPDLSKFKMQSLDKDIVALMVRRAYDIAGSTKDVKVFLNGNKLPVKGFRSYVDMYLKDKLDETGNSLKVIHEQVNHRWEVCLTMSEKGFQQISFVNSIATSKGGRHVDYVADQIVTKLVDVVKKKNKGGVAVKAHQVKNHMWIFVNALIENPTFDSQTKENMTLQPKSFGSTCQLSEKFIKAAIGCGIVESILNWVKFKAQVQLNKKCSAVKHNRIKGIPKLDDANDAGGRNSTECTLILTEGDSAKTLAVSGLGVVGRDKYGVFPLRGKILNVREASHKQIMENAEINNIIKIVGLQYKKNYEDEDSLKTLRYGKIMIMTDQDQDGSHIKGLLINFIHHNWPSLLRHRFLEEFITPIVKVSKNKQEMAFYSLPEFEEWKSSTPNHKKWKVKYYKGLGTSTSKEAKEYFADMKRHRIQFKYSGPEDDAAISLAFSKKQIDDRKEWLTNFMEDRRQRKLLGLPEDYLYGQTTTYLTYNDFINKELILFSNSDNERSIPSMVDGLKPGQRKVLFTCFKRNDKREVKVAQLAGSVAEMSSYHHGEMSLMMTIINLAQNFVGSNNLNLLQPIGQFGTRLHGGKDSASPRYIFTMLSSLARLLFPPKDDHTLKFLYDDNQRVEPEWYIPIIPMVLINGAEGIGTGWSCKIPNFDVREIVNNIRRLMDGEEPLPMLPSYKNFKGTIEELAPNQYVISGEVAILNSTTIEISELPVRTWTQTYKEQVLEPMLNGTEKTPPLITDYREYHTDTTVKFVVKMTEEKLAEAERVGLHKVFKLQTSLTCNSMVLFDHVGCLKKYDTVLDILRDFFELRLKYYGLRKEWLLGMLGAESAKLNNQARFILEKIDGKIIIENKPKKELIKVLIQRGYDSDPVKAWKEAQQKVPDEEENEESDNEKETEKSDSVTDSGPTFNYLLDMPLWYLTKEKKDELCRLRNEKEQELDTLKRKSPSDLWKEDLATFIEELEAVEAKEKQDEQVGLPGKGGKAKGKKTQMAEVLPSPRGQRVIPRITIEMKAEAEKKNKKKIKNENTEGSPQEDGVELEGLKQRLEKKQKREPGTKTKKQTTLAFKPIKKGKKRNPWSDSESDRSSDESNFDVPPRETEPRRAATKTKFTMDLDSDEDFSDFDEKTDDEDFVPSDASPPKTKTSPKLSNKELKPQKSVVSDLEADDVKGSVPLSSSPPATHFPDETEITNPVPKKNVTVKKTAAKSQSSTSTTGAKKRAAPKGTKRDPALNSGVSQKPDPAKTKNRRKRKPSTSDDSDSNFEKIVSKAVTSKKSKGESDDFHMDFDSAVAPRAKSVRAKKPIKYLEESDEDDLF

| Compound | IC50 (DU-145) [µM] | IC50 (HL-60) [µM] | IC50 (HCT-116) [µM] | IC50 (MDA-MB-231) [µM] | inhibition [1] [%] | IC50 (HeLa) [µM] | inhibition [2] [%] | inhibition [3] [%] | inhibition [4] [%] | inhibition [5] [%] | inhibition [6] |
| --- | --- | --- | --- | --- | --- | --- | --- | --- | --- | --- | --- |
| COc1cccc2c1C(=O)c1c(O)c3c(c(O)c1C2=O)C[C@@](O)(C(=O)CO)C[C@@H]3O[C@H]1C[C@H](N)[C@H](O)[C@H](C)O1 [DOXORUBICIN HYDROCHLORIDE] | 2.47 | 0.32 | 6.81 | – | – | – | – | – | – | – | – |
| O=c1c2ccccc2oc2cc(OCC(O)CSCCO)cc(O)c12 (centres undefined) | 3.47 | 19.9 | 23.9 | 5.13 | 49.1 | 9.15 | 26.3 | 0 | 63.8 | – | – |
| CO[C@@H]1[C@@H](OC(N)=O)[C@@H](O)[C@H](Oc2ccc3c(O)c(NC(=O)c4ccc(O)c(CC=C(C)C)c4)c(=O)oc3c2C)OC1(C)C | – | – | – | – | – | – | – | – | – | 60.4 | – |
| O=c1c2ccccc2oc2cc(OCC(O)CNCCCO)cc(O)c12 (centres undefined) | 1.6 | 8.87 | 31.3 | 6.97 | 62.8 | 19.2 | 38.7 | 3.45 | 100 | – | – |
| O=c1c2ccccc2oc2cc(OCC(O)CNCCO)cc(O)c12 (centres undefined) | 4.03 | 9.87 | 20 | 3.55 | 70.3 | 8.43 | 35.5 | 1.08 | 100 | – | – |
| O=c1c2ccccc2oc2cc(OCC(O)CN(CCO)CCO)cc(O)c12 (centres undefined) | 1.59 | 15.9 | 56.7 | 14.9 | 45.8 | 15.2 | 17.4 | 0 | 100 | – | – |
| O=c1c2ccccc2oc2cc(OCC(O)CSCCCO)cc(O)c12 (centres undefined) | 40.9 | 27.8 | > 100 | 8.4 | 26.1 | 12.3 | 17.5 | 0 | 68 | – | – |
| O=c1c2ccccc2oc2cc(OCC(O)COCCO)cc(O)c12 (centres undefined) | 15.6 | 16.6 | 46.7 | 10.4 | 43.7 | 15.4 | 23.4 | 0 | 89.2 | – | – |
| CC[C@@]1(O)C(=O)OCc2c1cc1n(c2=O)Cc2cc3ccccc3nc2-1 [CAMPTOTHECIN] | 0.31 | – | 3.97 | 0.97 | – | – | – | – | – | – | – |
| CCCNCC(O)COc1cc(O)c2c(=O)c3ccccc3oc2c1 (centres undefined) | 0.76 | 4.15 | 23.7 | 4.11 | 70 | 11.6 | 41.2 | 0 | 100 | 28.5 | inactive |
| COc1cc([C@@H]2c3cc4c(cc3[C@@H](O[C@@H]3O[C@@H]5CO[C@@H](C)O[C@H]5[C@H](O)[C@H]3O)[C@H]3COC(=O)[C@H]23)OCO4)cc(OC)c1O [ETOPOSIDE] | 2.19 | 1.28 | 9.5 | 1.23 | – | 2.36 | 26 | – | 77.1 | – | – |

Reference: ChEMBL document CHEMBL1781922, “Synthesis, biological evaluation, and molecular docking study of 3-(3'-heteroatom substituted-2'-hydroxy-1'-propyloxy) xanthone analogues as novel topoisomerase IIα catalytic inhibitor” (Eur J Med Chem, 2011)
